Laboratory results from patent publication US20220127232A1, “HISTONE ACETYLTRANSFERASE MODULATORS AND COMPOSITIONS AND USES THEREOF” (The Trustees of Columbia University in the City of New York, priority 2019, published 2022).
pEC50: −log10 of the molar value. Where a name gives a salt, the structure may show the parent alone. Read-outs that look alike come from different tables or passages of the source.

Legend:
p300 = p300 (Homo sapiens, UniProt Q09472); test: Histone Acetyltransferase (HAT) in vitro acetylation assay, western blot of H3K27ac / H3K18ac; assay type: biochemical; details: for H3-Lys 27 EC50 / H3-Lys 18 EC50 / pEC50: EC50 for activators; for H3-Lys 27 IC50 / H3-Lys 18 IC50: IC50 for inhibitors
Procedure: The aim of the in vitro acetylation assay is to measure the enzymatic activity of the various compounds towards p300.
First, the drug is prepared:
Second, dilute p300 in AM1 buffer to a concentration of 40 ng/μL (final concentration in the reaction 20 ng/μL). This is accomplished by diluting 1 μL of p300 (at 0.4 μg/μL) into […] of AM1 buffer.
Third, prepare the Master Mix. Prepare the Master Mix in low protein binding tubes (ThermoFisher Cat. No. 90410), 20 μL system.
Incubate reactions at 30° C. for 30 minutes.
Incubate reactions at 30° C. for 1 hour.
Fourth, perform the western blot assay. • Add 6.7 μL of Laemmli Sample Buffer 4× (Bio-Rad Laboratories Cat. No. 161-0737) for each reaction and boil samples at 95° C. for 5 min. • Charge 10 μL for each sample in 2 Tris Glycine 4-15% gels (Bio-Rad Laboratories Cat. No. 456-1086). Running Buffer: Tris-Glycine 1× (pour in the cell up to the writing “2 gels”). • Run at 90 V for 1 hour (until the gel front reaches the green line of cell). • Semi-dry transfer with Trans-Blot® Turbo™ Blotting System from Bio-Rad Laboratories (Trans-Blot® Turbo™ RTA midi PVDF transfer kit Cat. No1704275). • Activate PVDF membrane in methanol for 5 minutes and then wet in Trans-Blot® Turbo™ transfer buffer. • Wet stacks in transfer buffer. • Transfer at 23 V 1.3 A for 7 minutes. • Blocking buffer: 5% Non-Fat milk in TBST (tween 0.1%) 1 hour at room temperature. • Cut the membranes to get Ac-His 3 at 17 kDa and p300 at 300 kDa. • Incubate with primary antibodies overnight at 4° C. • The day after, make 3 washes in TBST (Tween 0.1%) of 10 minutes. • Incubate with secondary antibody at room temperature for 1 hour. • Make 3 washes in TBST (Tween 0.1%) of 5 minutes. • Incubate membranes with ECL (SuperSignal West Dura Extended Duration Substrate from ThermoFisher) for 5 minutes at room temperature. • Acquire the image with ChemiDoc Odyssey Fc 2 minutes.
To detect total H3 (loading control), strip the membranes with Restore™ Western Blot Stripping Buffer according to the manufacturer protocol.
Various compounds were tested for enzymatic activity with respect to Lys 18 and Lys 27. EC50 is indicated for Activators and IC50 for inhibitors respectively.
FIGS. 1A to 25B are graphs showing the lysine residue acetylation as a function of concentration for the compounds set forth in Table 3. The shaded area corresponds to the average values of lysine residue acetylation (continuous line) and their standard error range measured in the absence of compound and DMSO. The number of replicates is represented by “n”.

[1] = Stability in human liver microsomes; assay type: in vitro ADME; details: for microsomal CLint at 1 μM / half-life at 1 μM: both sexes, human, liver microsomes, pH 7.4, human liver microsomes
Procedure: Some compounds were tested for stability in human liver microsomes as shown below in Table 2.
Mixed-gender human liver microsomes (Lot #1010420) were purchased from XenoTech. The reaction mixture, minus NADPH, was prepared as described below. The test article was added into the reaction mixture at a final concentration of 1 μM. The control compound, testosterone, was run simultaneously with the test article in a separate reaction. An aliquot of the reaction mixture (without cofactor) was equilibrated in a shaking water bath at 37° C. for 3 minutes. The reaction was initiated by the addition of the cofactor, and the mixture was incubated in a shaking water bath at 37° C. Aliquots (100 μL) were withdrawn at 0, 10, 20, 30, and 60 minutes. Test article and testosterone samples were immediately combined with 400 μL of ice-cold 50/50 acetonitrile (ACN)/H2O containing 0.1% formic acid and internal standard to terminate the reaction. The samples were then mixed and centrifuged to precipitate proteins. All samples were assayed by LC-MS/MS using electrospray ionization. Analytical conditions are outlined in Appendix 1. The peak area response ratio (PARR) to internal standard was compared to the PARR at time 0 to determine the percent remaining at each time point. Half-lives and clearance were calculated using GraphPad software, fitting to a single-phase exponential decay equation.
Liver Microsomes 0.5 mg/mL NADPH (cofactor) 1 mM
Potassium Phosphate, pH 7.4 100 mM
Intrinsic clearance (CLint) was calculated based on CLint=k/P, where k is the elimination constant and P is the protein concentration in the incubation.

[2] = compound in DMSO, read-out: H3-Lys 18 EC50
[3] = compound in DMSO, read-out: H3-Lys 27 EC50

Sequence of p300 (Q09472 whole entry, species assumed): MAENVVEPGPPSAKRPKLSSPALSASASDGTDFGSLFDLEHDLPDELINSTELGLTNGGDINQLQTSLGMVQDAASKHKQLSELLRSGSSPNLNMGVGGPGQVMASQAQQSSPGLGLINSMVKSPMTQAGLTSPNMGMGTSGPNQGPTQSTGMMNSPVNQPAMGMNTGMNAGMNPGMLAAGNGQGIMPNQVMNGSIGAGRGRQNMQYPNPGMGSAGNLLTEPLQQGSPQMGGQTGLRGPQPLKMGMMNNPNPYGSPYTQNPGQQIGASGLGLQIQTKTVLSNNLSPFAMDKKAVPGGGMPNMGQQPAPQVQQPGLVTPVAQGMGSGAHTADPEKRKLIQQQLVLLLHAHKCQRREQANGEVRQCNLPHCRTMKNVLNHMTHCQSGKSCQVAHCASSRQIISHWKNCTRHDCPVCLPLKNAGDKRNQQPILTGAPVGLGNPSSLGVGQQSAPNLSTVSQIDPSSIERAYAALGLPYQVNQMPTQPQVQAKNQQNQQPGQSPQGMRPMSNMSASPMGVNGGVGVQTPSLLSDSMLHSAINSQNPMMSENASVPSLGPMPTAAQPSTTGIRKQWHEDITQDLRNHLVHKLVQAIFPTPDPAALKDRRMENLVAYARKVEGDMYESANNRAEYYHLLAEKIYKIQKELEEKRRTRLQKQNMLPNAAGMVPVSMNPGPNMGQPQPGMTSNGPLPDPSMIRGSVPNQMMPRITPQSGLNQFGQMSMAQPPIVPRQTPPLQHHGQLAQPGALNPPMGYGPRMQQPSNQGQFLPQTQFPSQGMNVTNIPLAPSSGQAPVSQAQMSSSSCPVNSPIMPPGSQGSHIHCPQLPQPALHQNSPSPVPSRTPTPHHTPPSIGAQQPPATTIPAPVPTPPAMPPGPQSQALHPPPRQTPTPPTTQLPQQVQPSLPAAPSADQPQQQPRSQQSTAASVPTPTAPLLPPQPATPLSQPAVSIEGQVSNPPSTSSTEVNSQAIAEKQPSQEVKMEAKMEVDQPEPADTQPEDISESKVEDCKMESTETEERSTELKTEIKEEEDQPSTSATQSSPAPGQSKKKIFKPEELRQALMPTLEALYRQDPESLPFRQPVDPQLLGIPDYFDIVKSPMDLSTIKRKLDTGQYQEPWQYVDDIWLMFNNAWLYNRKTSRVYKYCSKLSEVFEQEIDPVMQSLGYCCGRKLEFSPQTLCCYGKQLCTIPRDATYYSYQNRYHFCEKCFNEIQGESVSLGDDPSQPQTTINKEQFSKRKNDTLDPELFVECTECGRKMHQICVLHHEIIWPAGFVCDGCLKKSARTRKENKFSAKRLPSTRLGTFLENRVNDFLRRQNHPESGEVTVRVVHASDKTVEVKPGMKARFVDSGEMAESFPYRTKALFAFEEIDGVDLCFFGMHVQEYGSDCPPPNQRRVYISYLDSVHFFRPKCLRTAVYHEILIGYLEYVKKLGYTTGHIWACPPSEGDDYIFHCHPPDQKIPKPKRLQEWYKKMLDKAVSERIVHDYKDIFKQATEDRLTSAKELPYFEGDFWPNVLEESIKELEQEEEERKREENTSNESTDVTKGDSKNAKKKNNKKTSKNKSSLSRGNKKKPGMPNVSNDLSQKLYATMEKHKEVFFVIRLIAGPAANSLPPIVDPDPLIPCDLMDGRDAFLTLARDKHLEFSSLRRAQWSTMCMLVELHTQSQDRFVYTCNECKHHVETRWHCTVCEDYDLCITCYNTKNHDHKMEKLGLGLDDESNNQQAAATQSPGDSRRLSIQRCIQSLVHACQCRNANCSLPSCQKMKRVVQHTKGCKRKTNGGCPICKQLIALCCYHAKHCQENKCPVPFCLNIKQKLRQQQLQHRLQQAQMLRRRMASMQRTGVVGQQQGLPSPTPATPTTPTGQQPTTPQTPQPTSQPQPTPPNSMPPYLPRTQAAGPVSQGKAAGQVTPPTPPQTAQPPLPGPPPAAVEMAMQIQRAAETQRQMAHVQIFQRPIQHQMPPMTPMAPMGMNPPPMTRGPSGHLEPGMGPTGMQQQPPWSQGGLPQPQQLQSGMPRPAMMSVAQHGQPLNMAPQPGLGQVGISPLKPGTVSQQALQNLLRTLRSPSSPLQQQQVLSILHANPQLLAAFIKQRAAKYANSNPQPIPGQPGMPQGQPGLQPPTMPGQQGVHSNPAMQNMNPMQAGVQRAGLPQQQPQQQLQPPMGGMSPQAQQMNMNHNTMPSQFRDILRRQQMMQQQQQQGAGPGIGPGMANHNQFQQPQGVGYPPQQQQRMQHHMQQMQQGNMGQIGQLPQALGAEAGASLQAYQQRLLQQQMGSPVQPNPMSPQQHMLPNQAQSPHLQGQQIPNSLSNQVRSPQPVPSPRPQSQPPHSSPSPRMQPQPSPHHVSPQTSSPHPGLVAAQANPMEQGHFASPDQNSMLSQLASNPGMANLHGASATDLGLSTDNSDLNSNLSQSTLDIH

SMILES	H3-Lys 27 EC50 (p300; compound in DMSO)	H3-Lys 27 IC50 (p300; compound in DMSO)	H3-Lys 18 EC50 (p300; compound in DMSO)	H3-Lys 18 IC50 (p300; compound in DMSO)	other results
CC(C)Oc1cccc(OCCN(C)C)c1C(=O)Nc1ccc(Cl)c(C(F)(F)F)c1 [RA010143 HCl]	NO ACTIVITY	NO ACTIVITY			
CCOc1cccc(OCCO)c1C(=O)Nc1ccc(Cl)c(C(F)(F)F)c1 [RA010146]	NO ACTIVITY	NO ACTIVITY	NO ACTIVITY	NO ACTIVITY	
CCOc1cccc(OCCOC)c1C(=O)Nc1ccc(Cl)c(C(F)(F)F)c1 [RA010155]	NO ACTIVITY	NO ACTIVITY			pEC50 (p300; [2]): 6.89
CCOc1cccc(O)c1C(=O)Nc1cccc(C(F)(F)F)c1 [RA010160]					pEC50 (p300; [2]): 6.84; pEC50 (p300; [3]): 6.27
CN(C)CCOc1cccc(F)c1C(=O)Nc1ccc(Cl)c(C(F)(F)F)c1 [RA010162]	NO ACTIVITY	NO ACTIVITY	NO ACTIVITY	NO ACTIVITY	
CCOc1cccc(N(C)CCN(C)C)c1C(=O)Nc1ccc(Cl)c(C(F)(F)F)c1 [RA010163]	NO ACTIVITY	NO ACTIVITY	NO ACTIVITY	NO ACTIVITY	
CCOc1cccc(OCCN(C)C)c1C(=O)Nc1cccc(C(F)(F)F)c1 [RA010168]	NO ACTIVITY	NO ACTIVITY			
CCOc1cccc(OCC)c1C(=O)Nc1ccc(Cl)c(C(F)(F)F)c1 [RA010171]					pEC50 (p300; [2]): 6.85
COc1cccc(OCCN(C)C)c1C(=O)Nc1ccc(Cl)c(C(F)(F)F)c1 [RA010900 HCl]	NO ACTIVITY	NO ACTIVITY	NO ACTIVITY	NO ACTIVITY	pEC50 (p300; compound in H2O, read-out: H3-Lys 18 EC50): 6.93; pEC50 (p300; compound in H2O, read-out: H3-Lys 27 EC50): 7.36
CCOc1ccnc(OCCN(C)C)c1C(=O)Nc1ccc(Cl)c(C(F)(F)F)c1 [RA013005]					pEC50 (p300; [2]): 7.12; pEC50 (p300; [3]): 6.23; microsomal CLint at 1 μM ([1]; calculated value printed in parentheses behind the bound, read-out: CLint, value in parentheses): 188 µL/min/mg; half-life at 1 μM ([1]; fitted value printed in parentheses behind the bound, read-out: Half-life, value in parentheses): 7.36 min; microsomal CLint at 1 μM ([1]; read-out: CLint): > 139 µL/min/mg; half-life at 1 μM ([1]; read-out: Half-life): < 10 min; % Remaining of Initial (n = 1) 0 min ([1]; human liver microsomes, test article 1 μM, 0 min): 100%; % Remaining of Initial (n = 1) 10 min ([1]; human liver microsomes, test article 1 μM, 10 min): 40.5%; % Remaining of Initial (n = 1) 20 min ([1]; human liver microsomes, test article 1 μM, 20 min): 14.1%; % Remaining of Initial (n = 1) 30 min ([1]; human liver microsomes, test article 1 μM, 30 min): 4.97%; % Remaining of Initial (n = 1) 60 min ([1]; human liver microsomes, test article 1 μM, 60 min): <1.00%
CCOc1cccc(OCCN(C)C)c1-c1nc2cc(Cl)c(C(F)(F)F)cc2[nH]1 [RA013012]	NO ACTIVITY	NO ACTIVITY	NO ACTIVITY	NO ACTIVITY	
CCOc1ccccc1C(=O)N(CCN(C)C)c1ccc(Cl)c(C(F)(F)F)c1 [RA013886]	NO ACTIVITY	NO ACTIVITY	NO ACTIVITY	NO ACTIVITY	
CCOc1cccc(OCCNC)c1C(=O)Nc1ccc(Cl)c(C(F)(F)F)c1 [RA013894]	NO ACTIVITY	NO ACTIVITY	NO ACTIVITY	NO ACTIVITY	
CN(C)CCOc1cccc(O)c1C(=O)Nc1ccc(Cl)c(C(F)(F)F)c1 [RA013905]	NO ACTIVITY	NO ACTIVITY	NO ACTIVITY	NO ACTIVITY	
CCOc1cccc(OCCN(C)C)c1C(=O)Nc1ccc(Cl)cn1 [RA013917]			NO ACTIVITY		pEC50 (p300; [3]): 7.80
CCOc1cccc(OCCN(C)C)c1NC(=O)c1ccc(Cl)c(C(F)(F)F)c1 [RA013919]	NO ACTIVITY	NO ACTIVITY			
CCOc1cccc(OCCN(C)C)c1C(=O)Nc1cccc(C(F)(F)F)c1 [RA013928]			NO ACTIVITY	NO ACTIVITY	
CCCOc1cccc(O)c1C(=O)Nc1ccc(Cl)c(C(F)(F)F)c1 [RA013931]	NO ACTIVITY	NO ACTIVITY	NO ACTIVITY	NO ACTIVITY	
CCCOc1cccc(OCCN(C)C)c1C(=O)Nc1ccc(Cl)c(C(F)(F)F)c1 [RA013938]	NO ACTIVITY	NO ACTIVITY	NO ACTIVITY	NO ACTIVITY	
